Experiments:
arachidonic acid release = assay: Arachidonic acid release from thapsigargin-stimulated PMNL (GC-MS); assay type: cell-based, human; details: 1 μM compound, 1 μM thapsigargin 5 min, vs control (0.5% DMSO)
Method: Quantification of arachidonic acid release from cellular membranes was performed as previously described. Briefly, freshly isolated PMNL (10^7 cells/ml, in HBSS containing 1.6 mM CaCl2 and 0.1% BSA) were incubated with adenosine deaminase (0.3 U/ml) and test compounds for 5 min at 37°C. Stimulation was initiated with the addition of 1 μM thapsigargin, followed by incubation at 37°C for 5 min. The reactions were stopped with the addition of two volumes of cold MeOH and 300 ng of arachidonic acid-d8 (Cayman Chemicals) as internal standard. The samples were stored at −20°C overnight and then centrifuged the next day at 1000 g for 10 min. The supernatants were diluted with four volumes of acidified water (0.1%) then processed on an octadecyl (C18) column. Samples were eluted with the addition of 3 ml of MeOH and dried under nitrogen. Pentafluorobenzylesters were prepared with the addition 50 μl N,N-diisopropylethylamine (20% in acetonitrile) and 50 μl of […] (20% in acetonitrile). Samples were heated for 40 min at 40°C, then dried under nitrogen and resuspended in 100 μl of hexane. Samples were quantified by negative ion chemical ionization gas chromatography/mass spectrometry using TraceGC ultra column (Thermo) and a Polaris Q mass spectrometer (Thermo).
Figure 4 The impact of test compounds on the liberation of arachidonic acid in stimulated PMNL. Human PMNL were incubated with test compounds (1 μM) or their diluent (control, DMSO 0.5%) for 5 min. Stimulation was then initiated with the addition of 1 μM thapsigargin, followed by an incubation at 37°C for 5 min. The reactions were stopped with the addition of two volumes of cold MeOH and 300 ng of arachidonic acid-d8, then samples were stored overnight at −20°C. Free arachidonic acid was first extracted on octadecyl columns, then pentafluorobenzylesters of arachidonic acid were prepared and samples were measured on GC-MS. Spontaneous release of AA was also measured in absence of thapsigargin (nonactivated, NA). ^∗Different from control as determined by one-way ANOVA with Dunnett's multiple comparison test (p < 0.05). Data are expressed as means ± SEM of at least 3 independent experiments.

[1] = molecular target: T1, platelet 12-lipoxygenase (12-LO) (Homo sapiens, UniProt P18054); assay: Platelet activation (A23187), biosynthesis of 12-HETE; assay type: cell-based; details: 10 μM A23187 5 min
T1 construct: endogenous in cells; host or cells: platelets isolated from platelet-rich plasma
T1 sequence (P18054 1-663): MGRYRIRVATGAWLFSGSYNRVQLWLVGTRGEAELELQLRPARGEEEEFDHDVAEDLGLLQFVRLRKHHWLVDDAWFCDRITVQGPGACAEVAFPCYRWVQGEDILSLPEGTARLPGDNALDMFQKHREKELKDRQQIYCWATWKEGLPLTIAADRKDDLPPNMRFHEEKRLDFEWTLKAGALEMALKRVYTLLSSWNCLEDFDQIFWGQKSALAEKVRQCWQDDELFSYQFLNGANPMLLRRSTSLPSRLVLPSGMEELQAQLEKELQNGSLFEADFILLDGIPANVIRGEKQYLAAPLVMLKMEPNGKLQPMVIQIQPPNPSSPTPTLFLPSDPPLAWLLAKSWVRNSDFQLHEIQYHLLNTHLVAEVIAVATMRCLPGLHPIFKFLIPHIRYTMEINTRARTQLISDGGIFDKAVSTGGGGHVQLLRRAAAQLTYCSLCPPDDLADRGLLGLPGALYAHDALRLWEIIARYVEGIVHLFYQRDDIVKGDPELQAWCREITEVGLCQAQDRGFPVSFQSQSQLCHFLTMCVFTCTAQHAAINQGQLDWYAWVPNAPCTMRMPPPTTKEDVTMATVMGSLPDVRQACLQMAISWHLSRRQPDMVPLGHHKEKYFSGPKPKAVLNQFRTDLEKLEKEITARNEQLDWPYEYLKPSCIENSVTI
Method: Polymorphonuclear leukocytes (PMNL) were isolated as previously described. Briefly, whole blood was collected (with anticoagulant citrate dextrose (ACD)) and then centrifuged at 500 g for 10 min. Platelet-rich plasma (PRP) was set aside for platelet isolation (see below), and erythrocytes were removed by dextran sedimentation. After a centrifugation step at 900 g × 20 min at room temperature on a lymphocyte separation medium cushion (density, 1.077 g/ml) (Wisent), PMNL were obtained (>96%) followed by hypotonic lysis of the remaining erythrocytes. PMNL were counted and resuspended at 10^7 cells/ml in HBSS supplemented with 1.6 mM CaCl2. PRP was processed as previously described for platelet isolation. Briefly, PRP was centrifuged at 400 g for 2 min at room temperature to remove the remaining erythrocytes. The supernatant was then centrifuged at 1300g for 10 min to pellet platelets. Cells were resuspended in Tyrode Buffer pH 7.4 (134 mM NaCl, 2.9 mM KCl, 0.34 mM Na2HPO4, 12 mM NaHCO3, 20 mM HEPES, 1 mM MgCl2, 5 mM glucose, and 0.5 mg/ml BSA) at 3 × 10^8 cells/ml in the presence of 5 mM CaCl2.
Platelets (3 × 10^8 cells/ml) were preincubated with various test compounds at indicated concentrations for 5 min at 37°C. Platelet activation was initiated with the addition of 10 μM of calcium ionophore A23187 (Sigma-Aldrich) followed by a 5 min incubation time at 37°C. Reactions were stopped with the addition of two volumes of cold MeOH:MeCN (1 : 1) containing PGB2 (100 ng/ml) as internal standard. Samples were stored overnight at −20°C and were then centrifuged, the supernatant was dried under nitrogen, and the samples were resuspended in 30% methanol and analyzed by RP-HPLC as indicated above.
Figure 5 The inhibitory effects of the test compounds of the biosynthesis of 5-LO products in stimulated whole blood (a) and the biosynthesis of 12-lipoxygenase products in platelets (b). (a) Whole blood was incubated in presence of various compounds (1 μM and 5 μM) or with their diluent (control, DMSO 0.5%) for 5 min, then stimulated with opsonized zymosan (5 mg/ml) for 30 min at 37°C. Blood was then centrifuged and plasma was collected and added to 3.5 volumes of MeOH:CH3CN (1 : 1). Samples were processed for analysis by RP-HPLC for total 5-LO products quantification. Total 5-LO products measured represent the sum of LTB4, its trans isomers, 20-COOH and 20-OH-LTB4, and 5-hydroxyeicosatetraenoic acid. (b) Platelets were incubated for 5 min in presence of test compounds (1 μM and 3 μM) then biosynthesis of 12-HETE was initiated with the addition of 10 μM of calcium ionophore A23187. Reactions were stopped with the addition of two volumes of MeOH:MeCN (1 : 1 v/v). Samples were processed for analysis by RP-HPLC for 12-hydroxyeicosatetraenoic acid (12-HETE) quantification. ^∗Different from control as determined by one-way ANOVA with Dunnett's multiple comparison test (p < 0.05). Data are expressed as means ± SEM of at least 3 independent experiments.
Having identified compounds that inhibit the biosynthesis of lipid mediators generated via the 5-LO pathway, their ability to inhibit platelet 12-lipoxygenase (12-LO) was assessed to determine whether they show specificity.

Row | SMILES | Inhibition of cellular arachidonic acid release in stimulated PMNL (arachidonic acid release) | Inhibition of biosynthesis of 12-HETE in platelets ([1]; 1 μM compound) | Inhibition of biosynthesis of 12-HETE in platelets ([1]; 3 μM compound)
1 | O=C(/C=C/c1ccc(O)c(O)c1)OCCc1ccccc1 [CAPE (2), Caffeic acid phenethyl ester, reference compound] | significantly inhibited cellular arachidonic acid release | significantly inhibited the biosynthesis of 12-HETE | near-complete inhibition
2 | C=C(C)CCOC(=O)/C=C/c1ccc(O)c(O)c1 [Compound 9] | significantly inhibited cellular arachidonic acid release | significantly inhibited the biosynthesis of 12-HETE | near-complete inhibition
3 | O=C(/C=C/c1ccc(O)c(O)c1)OCCCc1ccccc1 [Compound 13] | significantly inhibited cellular arachidonic acid release | significantly inhibited the biosynthesis of 12-HETE | near-complete inhibition
4 | O=C(/C=C/c1ccc(O)c(O)c1)OCCc1ccc(F)cc1 [Compound 14] | failed to significantly inhibit the release of cellular membrane arachidonic acid | significantly inhibited the biosynthesis of 12-HETE | near-complete inhibition
5 | Cc1ccc(CCOC(=O)/C=C/c2ccc(O)c(O)c2)cc1 [Compound 15] | failed to significantly inhibit the release of cellular membrane arachidonic acid | significantly inhibited the biosynthesis of 12-HETE | near-complete inhibition
6 | COc1ccc(CCOC(=O)/C=C/c2ccc(O)c(O)c2)cc1 [Compound 16] | failed to significantly inhibit the release of cellular membrane arachidonic acid | failed to significantly affect the biosynthesis of 12-HETE | significant inhibition
7 | O=C(/C=C/c1ccc(O)c(O)c1)OCC(c1ccccc1)c1ccccc1 [Compound 19] | significantly inhibited cellular arachidonic acid release | failed to significantly affect the biosynthesis of 12-HETE | significant inhibition
